Values of other authors as cited in patent publication US20110064803A1, “NANOPARTICULATE AND CONTROLLED RELEASE COMPOSITIONS COMPRISING VITAMIN K2” (ELAN PHARMA INTERNATIONAL LIMITED., priority 2005, published 2011).
Where two headings read alike, the source gives them in different places.

Key:
[1] = oral
[2] = not given; remark: listed apart in the source

In the case of `COC(=O)C(c1ccccc1)C1CCCCN1` (stereo not drawn) [methylphenidate, α-phenyl-2-piperidine acetic acid methyl ester], the “Persistence of drug effects” value ([1]; conventional IR tablets) is listed as 3 to 6 h and the “Persistence of drug effects” value ([1]; extended release formulations) is listed as “up to 8 hours”.
In the case of `CC(C)=CCC/C(C)=C/CC/C(C)=C/CC/C(C)=C/CC1=C(C)C(=O)c2ccccc2C1=O` [Vitamin K2], the Stability to light is given as “decomposes and the color becomes more intense by light”, the “Solubility in ethanol (99.5)” value ([2]; ethanol (99.5)) is given as “soluble” and the Solubility in hexane ([2]; hexane) is given as “very soluble”. For the same compound, the Solubility in methanol ([2]; methanol) was “slightly soluble” and the Solubility in water ([2]; water) was “practically insoluble”.
